Results: patent US7138411B2, “Substituted benzopyran derivatives for the treatment of inflammation” (G.D. Searle & Co., priority 1997, dated 2006)
Structures can show the parent of a compound that is named as a salt.

| SMILES | melting point |
| --- | --- |
| O=C(O)C1=Cc2cc(Cl)ccc2N(Cc2ccc([N+](=O)[O-])cc2)C1C(F)(F)F (stereo not shown) [Example 170, 6-Chloro-1,2-dihydro-1-[(4-nitrophenyl)methyl]-2-(trifluoromethyl)-3-quinolinecarboxylic acid] | 225 to 228 °C |
| N#Cc1ccc(CN2c3ccc(Cl)cc3C=C(C(=O)O)C2C(F)(F)F)cc1 (stereo not shown) [Example 169, 6-Chloro-1-[(4-cyanophenyl)methyl]-1,2-dihydro-2-(trifluoromethyl)-3-quinolinecarboxylic acid] | 258 to 260 °C |
| O=C(O)C1=Cc2ccc(C(F)(F)F)cc2OC1C(F)(F)F (stereo not shown) [Example 4, 2,7-bis(Trifluoromethyl)-2H-1-benzopyran-3-carboxylic acid] | 190.3 to 193.5 °C |
| C[S+]([O-])c1ccc2c(c1)C=C(C(=O)O)C(C(F)(F)F)O2 (stereo not shown) [Example 86, 6-(Methylsulfinyl)-2-(trifluoromethyl)-2H-1-benzopyran-3-carboxylic acid] | 148.3 to 151 °C |
| Cc1ncc(CO)c2c1OC(C(F)(F)F)C(C(=O)O)=C2 (stereo not shown) [Example 90, 5-(Hydroxymethyl)-8-methyl-2-(trifluoromethyl)-2H-pyrano[2,3-c]pyridine-3-carboxylic acid] | 76.1 to 80.1 °C |
| O=C(O)C1=Cc2cc(C(O)C(F)(F)F)ccc2OC1C(F)(F)F (stereo not shown) [Example 173, 6-(2,2,2-Trifluoro-1-hydroxyethyl)-2-(trifluoromethyl)-2H-1-benzopyran-3-carboxylic acid] | 114 to 120 °C |
| CC(C)(C)c1ccc2c(c1)C=C(C(=O)O)C(C(F)(F)F)S2 (stereo not shown) [Example 147, 6-(1,1-Dimethylethyl)-2-(trifluoromethyl)-2H-1-benzothiopyran-3-carboxylic acid] | 183.8 to 184.6 °C |

Second part, the molecule after the results:

| melting point | SMILES |
| --- | --- |
| 288.1 to 289.2 °C | O=C(O)C1=Cc2cc(Cl)c(Oc3cccc(C(=O)O)c3)cc2OC1C(F)(F)F (stereo not shown) (as salt: potassium) [Example 208, 7-(3-Carboxyphenoxy)-6-chloro-2-(trifluoromethyl)-2H-1-benzopyran-3-carboxylic acid] |
| > 300 °C | O=C(O)C1=Cc2cc(Cl)cc(-c3nc4ccccc4[nH]3)c2OC1C(F)(F)F (stereo not shown) [Example 110, 8-(1H-Benzimidazol-2-yl)-6-chloro-2-(trifluoromethyl)-2H-1-benzopyran-3-carboxylic acid] |
| 199 to 199.1 °C | O=C(O)C1=Cc2cc(Cl)c(Oc3ccccc3Cl)cc2OC1C(F)(F)F (stereo not shown) [Example 204, 6-Chloro-7-(2-chlorophenoxy)-2-(trifluoromethyl)-2H-1-benzopyran-3-carboxylic acid] |
| 207 to 210 °C | O=C(O)C1=Cc2cc(-c3ccc(F)cc3)ccc2OC1C(F)(F)F (stereo not shown) [Example 131, 6-(4-Fluorophenyl)-2-(trifluoromethyl)-2H-1-benzopyran-3-carboxylic acid] |
| 171.5 to 173.3 °C | O=C(O)C1=Cc2cc(Cl)cc(-c3ccco3)c2OC1C(F)(F)F (stereo not shown) [Example 117, 6-Chloro-8-(2-furanyl)-2-(trifluoromethyl)-2H-1-benzopyran-3-carboxylic acid] |
| 227.8 to 228.9 °C | O=C(O)C1=Cc2cc(Oc3ccc(Cl)cc3)cc(Cl)c2OC1C(F)(F)F (stereo not shown) [Example 100] |
| 210.4 to 211.4 °C | O=C(O)C1=Cc2cc(Cl)cc(C#Cc3ccc(Cl)cc3)c2OC1C(F)(F)F (stereo not shown) [Example 122, 6-Chloro-8-[(4-chlorophenyl)ethynyl]-2-(trifluoromethyl)-2H-1-benzopyran-3-carboxylic acid] |
| 200.8 to 206.7 °C | O=C(O)C1=C(c2cccs2)c2cc(Cl)ccc2OC1C(F)(F)F (stereo not shown) [Example 144, 6-Chloro-4-(2-thienyl)-2-(trifluoromethyl)-2H-1-benzopyran-3-carboxylic acid] |
| 286.5 to 287.8 °C | CS(=O)(=O)c1ccc(-c2cc(Cl)cc3c2OC(C(F)(F)F)C(C(=O)O)=C3)cc1 (stereo not shown) [Example 128, 6-Chloro-8-[(4-methylsulfonyl)phenyl]-2-(trifluoromethyl)-2H-1-benzopyran-3-carboxylic acid] |
